Test results as given in patent US10081624B2, “Heterocyclic compound” (Takeda Pharmaceutical Company Limited, priority 2014, dated 2018).

Experiments:
[1] = molecular target: T1, HDAC1 enzyme (Homo sapiens, UniProt Q13547); assay: HDAC1 enzyme inhibitory assay (HDAC-Glo I/II Assay kit); format: biochemical; conditions: 1 μM test compound; for inhibition at 1 µM: read-out: HDAC1 inhibitory rate (%) (1 μM)
T1 construct: prepared by transducing full length HDAC1 and HDAC6 genes into Sf-9 insect cells; GST; purchased SignalChem; host or cells: Sf-9 insect cells
Experimental: HDAC1 enzyme and HDAC6 enzyme each prepared by transducing full length HDAC1 and HDAC6 genes into Sf-9 insect cells and purifying by GST affinity column were purchased from SignalChem. Using these enzymes, HDAC1 and/or HDAC6 enzyme inhibitory activities of the compound of the present invention were evaluated. Enzymes were used after preserved at −70° C. HDAC1 or HDAC6 enzyme inhibitory activity of the compound of the present invention was measured using HDAC-Glo™ I/II Assay kit (Promega) according to the following experimental method. The test compound diluted with assay buffer (24 mM Tris-HCl (pH 7.5), 1 mM MgCl2, 0.35 mM KCl, 135 mM NaCl, 0.6 mM Glutathione, 0.01% Tween-20) was added to a 384-well plate by each 2 μL. Then, HDAC1 or HDAC6 enzyme solution diluted with assay buffer was added thereto by each 4 μL, and the plate was incubated at room temperature for 60 min. After incubated, HDAC substrate-Developer solution prepared according to Promega protocol attached to the assay kit was added to the 384-well plate by each 2 μL, and the enzyme reaction was started. After reacting at room temperature for 20 min, luminescence level was measured using plate reader Envision (PerkinElmer). The inhibitory activity of each compound was calculated as a relative activity value when luminescence level in wells without enzyme is considered as 100% inhibition.

[2] = molecular target: T2, HDAC6 enzyme (Homo sapiens, UniProt Q9UBN7); assay: HDAC6 enzyme inhibitory assay (HDAC-Glo I/II Assay kit); format: biochemical; conditions: 1 μM test compound; for inhibition at 1 µM: read-out: HDAC6 inhibitory rate (%) (1 μM)
T2 construct: prepared by transducing full length HDAC1 and HDAC6 genes into Sf-9 insect cells; GST; purchased SignalChem; host or cells: Sf-9 insect cells
T2 sequence (Q9UBN7 1-1215): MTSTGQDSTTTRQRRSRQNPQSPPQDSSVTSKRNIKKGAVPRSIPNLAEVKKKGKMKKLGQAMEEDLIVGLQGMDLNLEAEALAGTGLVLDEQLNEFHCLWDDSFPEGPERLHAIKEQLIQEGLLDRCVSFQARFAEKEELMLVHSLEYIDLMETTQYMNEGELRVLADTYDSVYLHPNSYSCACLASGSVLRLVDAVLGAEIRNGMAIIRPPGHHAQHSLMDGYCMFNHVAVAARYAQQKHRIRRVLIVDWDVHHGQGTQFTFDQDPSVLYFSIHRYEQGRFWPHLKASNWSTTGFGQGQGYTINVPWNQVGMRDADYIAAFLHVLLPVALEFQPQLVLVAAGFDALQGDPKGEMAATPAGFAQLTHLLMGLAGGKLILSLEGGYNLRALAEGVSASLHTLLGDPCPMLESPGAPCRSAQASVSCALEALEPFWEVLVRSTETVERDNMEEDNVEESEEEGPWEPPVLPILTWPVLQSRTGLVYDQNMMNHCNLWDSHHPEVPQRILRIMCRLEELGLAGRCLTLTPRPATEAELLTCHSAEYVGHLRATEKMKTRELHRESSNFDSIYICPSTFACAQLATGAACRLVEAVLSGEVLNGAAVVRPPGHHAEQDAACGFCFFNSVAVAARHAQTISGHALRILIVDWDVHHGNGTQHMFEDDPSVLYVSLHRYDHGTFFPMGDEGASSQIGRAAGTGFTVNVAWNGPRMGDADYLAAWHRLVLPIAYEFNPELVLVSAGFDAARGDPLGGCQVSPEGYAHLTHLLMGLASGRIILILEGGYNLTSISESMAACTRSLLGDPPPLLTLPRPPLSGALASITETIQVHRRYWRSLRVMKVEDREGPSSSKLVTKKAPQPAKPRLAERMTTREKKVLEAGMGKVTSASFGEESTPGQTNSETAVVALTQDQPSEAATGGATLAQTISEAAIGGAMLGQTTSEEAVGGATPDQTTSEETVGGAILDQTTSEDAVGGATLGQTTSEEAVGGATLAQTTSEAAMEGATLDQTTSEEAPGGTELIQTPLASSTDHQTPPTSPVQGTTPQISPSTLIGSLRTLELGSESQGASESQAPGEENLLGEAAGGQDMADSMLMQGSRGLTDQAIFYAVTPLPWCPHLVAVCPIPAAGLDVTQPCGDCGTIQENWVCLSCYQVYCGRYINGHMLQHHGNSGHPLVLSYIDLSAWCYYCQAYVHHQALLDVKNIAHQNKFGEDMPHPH
In short: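 Sf-9-expressed GST-purified full-length HDAC1/HDAC6; cpd + enzyme 60 min RT, 24 mM Tris-HCl pH 7.5, 135 mM NaCl, 0.6 mM glutathione, 0.01% Tween-20; substrate-developer 20 min RT; luminescence; no-enzyme wells = 100% inhibition.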

T1 sequence (Q13547 whole entry): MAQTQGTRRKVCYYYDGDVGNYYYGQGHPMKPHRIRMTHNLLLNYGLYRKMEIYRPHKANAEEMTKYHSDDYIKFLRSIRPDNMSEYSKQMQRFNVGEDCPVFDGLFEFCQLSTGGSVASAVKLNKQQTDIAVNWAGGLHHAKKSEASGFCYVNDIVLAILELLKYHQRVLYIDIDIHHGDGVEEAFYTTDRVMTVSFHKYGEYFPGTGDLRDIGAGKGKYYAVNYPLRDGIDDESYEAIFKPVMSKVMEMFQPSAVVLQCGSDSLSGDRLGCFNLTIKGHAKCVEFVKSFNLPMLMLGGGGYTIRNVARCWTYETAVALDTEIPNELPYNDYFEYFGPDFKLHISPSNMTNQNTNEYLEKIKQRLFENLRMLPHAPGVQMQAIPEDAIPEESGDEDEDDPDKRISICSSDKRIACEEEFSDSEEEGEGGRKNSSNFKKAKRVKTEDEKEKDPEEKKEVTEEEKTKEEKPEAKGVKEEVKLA

inhibition at 1 µM [1] [%]	inhibition at 1 µM [2] [%]	SMILES	further results
23	97	O=C(NCC1COCCN1C(=O)c1ccccc1)c1ccc(-c2noc(C(F)(F)F)n2)s1 (single isomer, unassigned) [Example 257, (R or S)-N-((4-benzoylmorpholin-3-yl)methyl)-5-(5-(trifluoromethyl)-1,2,4-oxadiazol-3-yl)thiophene-2-carboxamide]	
		O=C(NCC1COCCN1C(=O)c1ccccc1)c1ccc(-c2noc(C(F)(F)F)n2)s1 (single isomer, unassigned) [Example 258, (R or S)-N-((4-benzoylmorpholin-3-yl)methyl)-5-(5-(trifluoromethyl)-1,2,4-oxadiazol-3-yl)thiophene-2-carboxamide]	HDAC1 inhibitory rate (%) (1 μM) ([1]; 1 µM): 31%; HDAC6 inhibitory rate (%) (1 μM) ([2]; 1 µM): 96%
36	97	Cc1nc2ccccn2c1C(=O)N1CCOCC1CNC(=O)c1ccc(-c2noc(C(F)(F)F)n2)cc1 (stereo in doubt) [Example 92, N-(((3S)-4-((2-methylimidazo[1,2-a]pyridin-3-yl)carbonyl)morpholin-3-yl)methyl)-4-(5-(trifluoromethyl)-1,2,4-oxadiazol-3-yl)benzamide]	
21	95	Cn1nc2c(c1C(=O)N1CCOCC1CNC(=O)c1ccc(-c3noc(C(F)(F)F)n3)cc1)CCCC2 (stereo in doubt) [Example 93, N-(((3S)-4-((2-methyl-4,5,6,7-tetrahydro-2H-indazol-3-yl)carbonyl)morpholin-3-yl)methyl)-4-(5-(trifluoromethyl)-1,2,4-oxadiazol-3-yl)benzamide]	
30	99	Cc1nocc1C(=O)N1CCOCC1CNC(=O)c1ccc(-c2noc(C(F)(F)F)n2)cc1 (stereo in doubt) [Example 94, N-(((3S)-4-((3-methyl-1,2-oxazol-4-yl)carbonyl)morpholin-3-yl)methyl)-4-(5-(trifluoromethyl)-1,2,4-oxadiazol-3-yl)benzamide]	
30	99	CC(C)(C(=O)N1CCOCC1CNC(=O)c1ccc(-c2noc(C(F)(F)F)n2)cc1)c1ccccc1 (stereo in doubt) [Example 95, N-(((3S)-4-(2-methyl-2-phenylpropanoyl)morpholin-3-yl)methyl)-4-(5-(trifluoromethyl)-1,2,4-oxadiazol-3-yl)benzamide]	
40	98	O=C(NCC1COCCN1C(=O)C(F)(F)c1ccccc1)c1ccc(-c2noc(C(F)(F)F)n2)cc1 (stereo in doubt) [Example 96, N-(((3S)-4-(difluoro(phenyl)acetyl)morpholin-3-yl)methyl)-4-(5-(trifluoromethyl)-1,2,4-oxadiazol-3-yl)benzamide]	
	97	O=C(NCC1COCCN1C(=O)c1ccno1)c1ccc(-c2noc(C(F)(F)F)n2)s1 (stereo not drawn) [Example 239, N-((4-(1,2-oxazol-5-ylcarbonyl)morpholin-3-yl)methyl)-5-(5-(trifluoromethyl)-1,2,4-oxadiazol-3-yl)thiophene-2-carboxamide]	
	89	Cc1cc(C(=O)N2CCOCC2CNC(=O)c2ccc(-c3noc(C(F)(F)F)n3)s2)on1 (stereo not drawn) [Example 240, N-((4-((3-methyl-1,2-oxazol-5-yl)carbonyl)morpholin-3-yl)methyl)-5-(5-(trifluoromethyl)-1,2,4-oxadiazol-3-yl)thiophene-2-carboxamide]	
	94	O=C(NCC1COCCN1C(=O)c1cccs1)c1ccc(-c2noc(C(F)(F)F)n2)s1 (stereo not drawn) [Example 241, N-((4-(2-thienylcarbonyl)morpholin-3-yl)methyl)-5-(5-(trifluoromethyl)-1,2,4-oxadiazol-3-yl)thiophene-2-carboxamide]	
	89	Cc1ccc(C(=O)N2CCOCC2CNC(=O)c2ccc(-c3noc(C(F)(F)F)n3)s2)s1 (stereo not drawn) [Example 242, N-((4-((5-methyl-2-thienyl)carbonyl)morpholin-3-yl)methyl)-5-(5-(trifluoromethyl)-1,2,4-oxadiazol-3-yl)thiophene-2-carboxamide]	
	93	Cc1csc(C(=O)N2CCOCC2CNC(=O)c2ccc(-c3noc(C(F)(F)F)n3)s2)c1 (stereo not drawn) [Example 243, N-((4-((4-methyl-2-thienyl)carbonyl)morpholin-3-yl)methyl)-5-(5-(trifluoromethyl)-1,2,4-oxadiazol-3-yl)thiophene-2-carboxamide]	
	96	Cc1ccsc1C(=O)N1CCOCC1CNC(=O)c1ccc(-c2noc(C(F)(F)F)n2)s1 (stereo not drawn) [Example 244, N-((4-((3-methyl-2-thienyl)carbonyl)morpholin-3-yl)methyl)-5-(5-(trifluoromethyl)-1,2,4-oxadiazol-3-yl)thiophene-2-carboxamide]	
	95	O=C(NCC1COCCN1C(=O)Cc1cccs1)c1ccc(-c2noc(C(F)(F)F)n2)s1 (stereo not drawn) [Example 245, N-((4-(2-thienylacetyl)morpholin-3-yl)methyl)-5-(5-(trifluoromethyl)-1,2,4-oxadiazol-3-yl)thiophene-2-carboxamide]	
	83	O=C(NCC1COCCN1C(=O)C1(c2ccccc2)CCCCC1)c1ccc(-c2noc(C(F)(F)F)n2)s1 (stereo not drawn) [Example 249, N-((4-((1-phenylcyclohexyl)carbonyl)morpholin-3-yl)methyl)-5-(5-(trifluoromethyl)-1,2,4-oxadiazol-3-yl)thiophene-2-carboxamide]	
	98	O=C(NCC1COCCN1C(=O)CCc1ccccc1)c1ccc(-c2noc(C(F)(F)F)n2)s1 (stereo not drawn) [Example 250, N-((4-(3-phenylpropanoyl)morpholin-3-yl)methyl)-5-(5-(trifluoromethyl)-1,2,4-oxadiazol-3-yl)thiophene-2-carboxamide]	
	91	O=C(NCC1COCCN1C(=O)c1cccc2c1OCC2)c1ccc(-c2noc(C(F)(F)F)n2)s1 (stereo not drawn) [Example 252, N-((4-(2,3-dihydro-1-benzofuran-7-ylcarbonyl)morpholin-3-yl)methyl)-5-(5-(trifluoromethyl)-1,2,4-oxadiazol-3-yl)thiophene-2-carboxamide]	
	97	O=C(NCC1COCCN1C(=O)C1CC1)c1ccc(-c2noc(C(F)(F)F)n2)s1 (stereo not drawn) [Example 253, N-((4-(cyclopropylcarbonyl)morpholin-3-yl)methyl)-5-(5-(trifluoromethyl)-1,2,4-oxadiazol-3-yl)thiophene-2-carboxamide]	
	93	O=C(NCC1COCCN1C(=O)C1CCOCC1)c1ccc(-c2noc(C(F)(F)F)n2)s1 (stereo not drawn) [Example 255, N-((4-(tetrahydro-2H-pyran-4-ylcarbonyl)morpholin-3-yl)methyl)-5-(5-(trifluoromethyl)-1,2,4-oxadiazol-3-yl)thiophene-2-carboxamide]	
	52	O=C(NCC1COCCN1C(=O)c1ccccc1)c1cc(-c2noc(C(F)(F)F)n2)cs1 (stereo not drawn) [Example 267, N-((4-benzoylmorpholin-3-yl)methyl)-4-(5-(trifluoromethyl)-1,2,4-oxadiazol-3-yl)thiophene-2-carboxamide]	
